Reference: patent US10206911B2, “Androgen receptor variants and methods for making and using” (MEMORIAL SLOAN-KETTERING CANCER CENTER, priority 2012, dated 2019)
Where a chain is given by its changes, count along the chain named. Entries after “also recorded” stand apart in the source; their conditions may differ.

Columns and labels:
[1] = biological target: T1, AR F876L (Homo sapiens, UniProt P10275, DEL79-80/DUP473-473/F877L); assay: EGFP reporter assay of AR activity, LNCaP-Pb.PSE.EGFP cells, flow cytometry; type: cell-based; conditions: 10 μM, 4 days of treatment
T1 construct: expressed in transfected cells
T1 sequence (P10275 with tags, fused parts or gaps DEL79-80/DUP473-473/F877L): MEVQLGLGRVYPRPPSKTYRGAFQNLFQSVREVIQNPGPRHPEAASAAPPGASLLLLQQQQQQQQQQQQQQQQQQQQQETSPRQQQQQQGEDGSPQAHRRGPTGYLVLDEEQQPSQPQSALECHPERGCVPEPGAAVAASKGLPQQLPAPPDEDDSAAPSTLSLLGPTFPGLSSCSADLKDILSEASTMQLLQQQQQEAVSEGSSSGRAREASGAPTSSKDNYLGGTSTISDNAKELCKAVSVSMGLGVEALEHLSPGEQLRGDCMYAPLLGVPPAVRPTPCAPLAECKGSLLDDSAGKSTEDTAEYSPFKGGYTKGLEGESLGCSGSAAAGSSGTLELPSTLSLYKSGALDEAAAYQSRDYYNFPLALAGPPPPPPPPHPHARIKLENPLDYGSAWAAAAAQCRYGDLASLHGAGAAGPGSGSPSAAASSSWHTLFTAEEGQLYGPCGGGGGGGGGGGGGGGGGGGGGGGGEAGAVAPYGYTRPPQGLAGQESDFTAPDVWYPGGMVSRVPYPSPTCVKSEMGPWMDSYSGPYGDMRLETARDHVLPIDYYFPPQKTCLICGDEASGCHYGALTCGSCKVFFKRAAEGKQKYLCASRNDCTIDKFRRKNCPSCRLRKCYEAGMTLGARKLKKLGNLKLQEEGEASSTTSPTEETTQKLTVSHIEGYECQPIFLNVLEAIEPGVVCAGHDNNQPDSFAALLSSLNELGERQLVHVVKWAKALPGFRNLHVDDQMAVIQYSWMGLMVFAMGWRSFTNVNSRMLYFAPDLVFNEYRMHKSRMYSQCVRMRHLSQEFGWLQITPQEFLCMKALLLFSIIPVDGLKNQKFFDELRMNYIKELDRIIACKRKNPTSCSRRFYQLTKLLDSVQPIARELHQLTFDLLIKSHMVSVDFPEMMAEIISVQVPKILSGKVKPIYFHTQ
Excerpt: (§1) This clone was used for all flow cytometry assays and for the FACS-based resistance screens.

[2] = biological target: T2, AR WT (Homo sapiens, UniProt P10275, DEL79-80/DUP473-473); assay: as above; type: cell-based; conditions: 10 μM, 4 days of treatment
T2 construct: expressed in transfected cells; host or cells: LNCaP-Pb.PSE.EGFP (pantropic retroviral infection, blasticidin selection)
T2 sequence (P10275 with tags, fused parts or gaps DEL79-80/DUP473-473): T1 sequence (P10275 with tags, fused parts or gaps DEL79-80/DUP473-473/F877L) with L876F
Excerpt: as §1

[3] = tested on: AR mutants isolated from drug resistant LNCaP/AR xenograft tumors; assay: Luciferase reporter assay of AR activity in androgen depleted media, CV1 cells; type: cell-based, human; conditions: 10 μm antiandrogen
[4] = tested on: AR mutants isolated from drug resistant LNCaP/AR xenograft tumors; assay: EGFP reporter assay of AR activity, LNCaP/Pb.PSE.EGFP cells; type: cell-based, human; conditions: androgen containing media, 10 μM antiandrogen
Method: Additionally, EGFP reporter assays of AR activity in cells expressing the indicated AR mutants were performed and the data are presented in FIG. 21A and FIG. 21B.

[5] = tested on: AR mutants isolated from drug resistant CWR22Pc cells; assay: EGFP reporter assay and qRT-PCR, LNCaP/Pb.PSE.EGFP cells; type: cell-based, human; conditions: 10 μM antiandrogen; variable degrees, gene-specific differences
[6] = tested on: VCaP cells overexpressing AR F876L; assay: VCaP growth assay (CellTiter-GLO); type: cell-based, human; conditions: full-serum containing media, 10 μM
[7] = tested on: VCaP cells overexpressing AR WT; assay: VCaP growth assay (CellTiter-GLO); type: cell-based, human; conditions: full-serum containing media, 10 μM
[8] = tested on: DU145 (an AR null human prostate cancer cell line); assay: DU145 cell viability (CellTiterGLO); type: cell-based; conditions: 10 μM, full serum containing media
Method: DU145 cells were cultured in full serum containing media with 10 uM of the indicated antiandrogens. CellTiterGLO assay was performed on days 0, 3, and 6 to determine cell viability. RLU=relative light units.

[9] = tested on: CWR22PC cells expressing AR WT; assay: CWR22PC cell viability (CellTiterGLO); type: cell-based, human; conditions: full serum media; days 1, 4, and 7
Method: […]. […] CellTiterGLO assay was performed on days 1, 4, and 7 to measure cell viability. […] CellTiterGLO assay was performed on days 1, 4, and 7 to measure cell viability.
[…]. […] CellTiterGLO assay was performed on days 1, 4, and 7 to determine cell viability. RLU=relative light units.

[10] = tested on: LNCaP/AR cells ectopically expressing AR WT; assay: LNCaP/AR xenograft, time to tumor progression; type: in vivo, castrated male SCID mice; conditions: 30 mg/kg enzalutamide, daily gavage, castrate SCID mice
Method: Daily gavage treatment (using a formulation of 1% carboxymethyl cellulose, 0.1% Tween-80, 5% DMSO) was initiated on the day of injection. Once tumors were palpable, tumor size was measured weekly in three dimensions (1×w×d) with calipers.

[11] = biological target: T3, AR T877A (Homo sapiens, UniProt P10275, DEL79-80/DUP473-473/T878A); assay: AR luciferase reporter assay (ARE(4X)-luciferase) in CV1 cells; type: cell-based; conditions: 10 μM antiandrogen
T3 construct: expressed in transfected cells; host or cells: CV1
T3 sequence (P10275 with tags, fused parts or gaps DEL79-80/DUP473-473/T878A): T1 sequence (P10275 with tags, fused parts or gaps DEL79-80/DUP473-473/F877L) with L876F, T877A
Method: Transfection media was removed 4-6 hours later and replaced with phenol red free DME-HG containing 10% charcoal stripped serum. The following day each plate was split into 24- or 48-well plates, in 10% CSS media, containing the indicated drugs in triplicate. Twenty-four to forty-eight hours later, luciferase activity was assayed using Dual-Luciferase Reporter Assay System (Promega) on a 96-well luminometer (Turner Biosystems).

Which results are given for `CNC(=O)c1ccc(N2C(=S)N(c3cnc(C#N)c(C(F)(F)F)c3)C(=O)C23CCCC(C)(C)C3)cc1F` (racemic) [(±)-DR106, 4-(3-(6-cyano-5-(trifluoromethyl)pyridin-3-yl)-7,7-dimethyl-4-oxo-2-thioxo-1,3-diazaspiro[4.5]decan-1-yl)-2-fluoro-N-methylbenzamide]?
Effect on transcriptional activity of AR F876L in EGFP reporter assay (agonism or antagonism) [1]: effectively antagonized; also recorded: AR F876L inhibition; Effect on transcriptional activity of AR WT in EGFP reporter assay (agonism or antagonism) [2]: effectively antagonized

Which “Agonism on AR mutants, luciferase reporter” value [3] does the source give for `CNC(=O)c1ccc(N2C(=S)N(c3cnc(C#N)c(C(F)(F)F)c3)C(=O)C23CCC3)cc1F` [ARN-509] here?
Its value is “none of the mutants conferred agonism”.

And the “Sensitivity of AR mutants, EGFP reporter” value [4]?
Its value is “still remained sensitive”.

What about the “Sensitivity of AR mutants, EGFP reporter assay & qRT-PCR” value [5] of the same molecule?
Its value is “still remained sensitive”.

Which “Effect on transcriptional activity of AR F876L in EGFP reporter assay (agonism or antagonism)” value [1] does the source give for `CNC(=O)c1ccc(N2C(=S)N(c3ccc(C#N)c(C(F)(F)F)c3)C(=O)C23CCCCC3)cc1F` [DR101, 4-(3-(4-cyano-3-(trifluoromethyl)phenyl)-4-oxo-2-thioxo-1,3-diazaspiro[4.5]decan-1-yl)-2-fluoro-N-methylbenzamide] here?
The value was “agonist”.

And the “Growth of VCaP cells overexpressing AR F876L” value [6]?
Its value is “did not inhibit cell growth”.

What about the “Growth of VCaP cells, AR WT” value [7] of the same molecule?
The value was “only inhibit the growth of VCaP/AR WT”.

Which “Proliferation of DU145 cells” value [8] does the source give for `CNC(=O)c1ccc(N2C(=S)N(c3ccc(C#N)c(C(F)(F)F)c3)C(=O)C23CCC(C)(C)CC3)cc1F` [DR104, 4-(3-(4-cyano-3-(trifluoromethyl)phenyl)-8,8-dimethyl-4-oxo-2-thioxo-1,3-diazaspiro[4.5]decan-1-yl)-2-fluoro-N-methylbenzamide] here?
The value was “no significant growth inhibition”.

And the “Effect on transcriptional activity of AR F876L in EGFP reporter assay (agonism or antagonism)” value [1]?
The value was “modest agonist”.

What about the “Effect on transcriptional activity of AR WT in EGFP reporter assay (agonism or antagonism)” value [2] of the same molecule?
The value was “antagonist”.

How did the “Effect on transcriptional activity of AR F876L in EGFP reporter assay (agonism or antagonism)” value [1] turn out when `CNC(=O)c1ccc(N2C(=S)N(c3ccc(C#N)c(C(F)(F)F)c3)C(=O)C23CC(C)(C)CC(C)(C)C3)cc1F` [DR105, 4-(3-(4-cyano-3-(trifluoromethyl)phenyl)-7,7,9,9-tetramethyl-4-oxo-2-thioxo-1,3-diazaspiro[4.5]decan-1-yl)-2-fluoro-N-methylbenzamide] was run?
The value was “effectively antagonized; also recorded: inhibited”.

What about the “Effect on transcriptional activity of AR WT in EGFP reporter assay (agonism or antagonism)” value [2] of the same molecule?
Its value is “effectively antagonized; also recorded: inhibited”.

With `CNC(=O)c1ccc(N2CC(=O)N(c3ccc(C#N)c(C(F)(F)F)c3)C2=S)cc1F` [DR107, 4-(3-(4-cyano-3-(trifluoromethyl)phenyl)-4-oxo-2-thioxoimidazolidin-1-yl)-2-fluoro-N-methylbenzamide] as the molecule, how does the “Effect on transcriptional activity of AR F876L in EGFP reporter assay (agonism or antagonism)” value [1] read?
The value was “agonist”.

And the “Effect on transcriptional activity of AR WT in EGFP reporter assay (agonism or antagonism)” value [2]?
The value was “agonist”.

Which “Agonism on AR mutants, luciferase reporter” value [3] does the source give for `CNC(=O)c1ccc(N2C(=S)N(c3ccc(C#N)c(C(F)(F)F)c3)C(=O)C2(C)C)cc1F` [enzalutamide] here?
The value was “none of the mutants conferred agonism”.

And the “Growth/viability of CWR22PC cells, AR WT” value [9]?
The value was “very sensitive”.

And the “Sensitivity of AR mutants, EGFP reporter” value [4]?
Its value is “still remained sensitive”.

And the “Growth of VCaP cells, AR WT” value [7]?
Its value is “only inhibit the growth of VCaP/AR WT; also recorded: potently inhibits the growth”.

What about the “Growth of wild-type AR tumors” value [10] of the same molecule?
The value was “almost completely inhibited”.

What about the “Sensitivity of AR mutants, EGFP reporter assay & qRT-PCR” value [5] of the same molecule?
The value was “still remained sensitive”.

How did the “Agonism in luciferase reporter” value [11] turn out when `CC(C)(O)C(=O)Nc1ccc([N+](=O)[O-])c(C(F)(F)F)c1` [hydroxyflutamide] was run?
Its value is “confer agonism”.
